According to EP4737449A1 (Changchun Genescience Pharmaceutical Co., Ltd., priority 2023, dated 2025):
Where two headings read alike, the source gives them in different places.

Tests used:
p53-Y220C mutant protein = biological target: T1, p53-Y220C mutant protein (Homo sapiens, UniProt P04637, Y220C); assay: In vitro DNA binding activity assay (TR-FRET); assay type: biochemical; conditions: concentration required to increase the binding activity of protein to DNA by 50%
T1 construct: The recombinant Y220C p53 DBD protein with his-tag
Outline: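 SC150, the compound concentration increasing p53-Y220C DNA binding by 50% relative to vehicle, came from background-corrected 665/615 nm TR-FRET ratios. His-tagged DBD and compound were preincubated 60 min at RT before biotin-DNA plus Eu-anti-His/streptavidin-d2 detection overnight in the dark.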

NUGC-3 cells = assay: NUGC-3 cell proliferation assay (CTG, 7 days); assay type: cell-based, human; conditions: Homo sapiens, NUGC-3, 168 h
Outline: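 Cells (200/well) in 1640 medium with 10% serum exposed to 10-point, 3-fold DMSO dilutions (duplicates) for 7 days at 37°C. Viability read by CellTiter-Glo luminescence; % inhibition normalized to DMSO and blank, IC50 from variable-slope nonlinear fit.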

[1] = biological target: CYP 3A4 enzyme in human liver microsomes (Homo sapiens, UniProt P08684); assay: CYP3A4 inhibition experiment in human liver microsomes
CYP 3A4 enzyme in human liver microsomes, sequence (P08684 whole entry): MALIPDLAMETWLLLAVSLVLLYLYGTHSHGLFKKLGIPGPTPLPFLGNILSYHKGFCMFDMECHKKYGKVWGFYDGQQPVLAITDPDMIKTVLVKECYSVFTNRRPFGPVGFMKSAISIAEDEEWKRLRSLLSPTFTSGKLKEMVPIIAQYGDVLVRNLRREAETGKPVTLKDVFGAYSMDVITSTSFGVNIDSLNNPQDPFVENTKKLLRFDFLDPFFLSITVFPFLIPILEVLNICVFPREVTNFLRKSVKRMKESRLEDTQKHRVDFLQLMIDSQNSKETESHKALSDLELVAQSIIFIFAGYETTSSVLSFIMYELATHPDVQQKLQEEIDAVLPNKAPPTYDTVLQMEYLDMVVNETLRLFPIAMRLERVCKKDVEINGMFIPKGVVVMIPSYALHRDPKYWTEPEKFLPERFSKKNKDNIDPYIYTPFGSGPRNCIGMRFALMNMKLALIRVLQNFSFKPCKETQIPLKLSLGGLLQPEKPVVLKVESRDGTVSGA
Procedure: The inhibitory effects of the test compounds on CYP 3A4T (with testosterone as substrate) and 3A4M (with midazolam as substrate) in human liver microsomes were evaluated in vitro to assess the medication safety of the compounds.
This study used the human liver microsome system and the cytochrome P450 enzyme probe substrate recommended by FDA guidelines for in vitro drug interaction studies to investigate the inhibition of the CYP 3A4 enzyme in human liver microsomes by the test compounds.
Test group (TG): Human liver microsomes were incubated with different concentrations of test compounds, NADPH (final concentration 2.00 mM) and probe substrates of different sub-enzymes (Table 4) for 5 min.
Positive control group (PC): Human liver microsomes were incubated with inhibitors (Table 4), NADPH (final concentration 2.00 mM) and probe substrates of different sub-enzymes (Table 4) for 5 min. Table 4 Probe substrates of sub-enzymes, inhibitors and incubation systems
The system was pre-incubated at 37°C for 5 min, and then 15 µL of 8 mM NADPH solution preheated at 37°C for 5-10 min to start the reaction. After incubation of the 96-well plate at 37°C for 5 min, 180 µL of acetonitrile:methanol (ACN:MeOH=1:1) solution containing internal standard (IS) was added to terminate the reaction. […] 80 µL of the supernatant was taken, added to 120 µL of ultrapure water, shaken evenly, and then detected by LC-MS/MS.
199 µL of 0.2 mg/mL HLM and 1 µL of 1 mM positive control inhibitor (ketoconazole) working solutions were taken and mixed evenly. 30 µL of the drug-containing liver microsome solution was taken and added to a 96-well plate, then 10 µL of substrate working solution (20 µM midazolam) was added, in duplicate. The system was pre-incubated at 37°C for 5 min, and then 15 µL of 8 mM NADPH solution preheated at 37°C for 5-10 min to start the reaction. After incubation of the 96-well plate at 37°C for 5 min, 180 µL of ACN:MeOH(1:1) solution containing IS was added to terminate the reaction. […] 80 µL of the supernatant was taken, added to 120 µL of ultrapure water, shaken evenly, and then detected by LC-MS/MS.
4.2.5.1 The relative activity of CYP450 sub-enzymes at different concentrations was calculated by dividing the peak area ratio (analyte peak area/internal standard peak area) of metabolites in the presence of the test sample or positive control by the peak area ratio of metabolites in the solvent control sample in the absence of the test article or positive control, according to the following formula: [formula] [formula]
4.2.5.2 Half maximal inhibitory concentration (IC50) was obtained by fitting according to the following model formula using Prism software: Y = Bottom + (Top−Bottom)/(1+10^(∧)((LogIC50−X)×HillSlope)) [formula]
X is the test sample concentration converted to logarithm (Log µM), Y is the relative activity (% of NC), Bottom and Top represent the percentage of enzyme activity at the bottom platform and top platform of the curve, respectively, and HillSlope represents the slope; to optimize the fitting effect, the use of other (nonlinear) dose-response models for fitting is not considered as a deviation from the protocol.

[2] = CYP 3A4M IC50, human liver microsomes, midazolam as substrate
[3] = CYP 3A4T IC50, human liver microsomes, testosterone as substrate

Row | SMILES | SC150 (p53-Y220C mutant protein) [nM] | IC50 (NUGC-3 cells) [µM] | IC50 [1, 2] [µM] | IC50 [1, 3] [µM] | IC50 (NUGC-3 cells; NUGC-3 cell proliferation, 7 days, CTG, read-out: IC50) [µM]
1 | CN1CC[C@@H](Nc2cccc3c(CC(F)(F)F)c(C#CCNC(=O)c4cnn(C56CC(C5)C6)c4N)nn23)[C@@H](F)C1 [Compound 289, 5-amino-1-(dicyclo[1.1.1]pent-1-yl)-N-[3-(7-{[(3S,4R)-3-fluoro-1-methylpiperidin-4-yl]amino}-3-(2,2,2-trifluoroethyl)pyrazolo[1,5-a]pyridin-2-yl)prop-2-yn-1-yl]-1H-pyrazole-4-carboxamide] | 5 | 0.182 | 12.9 | 13.2 | 
2 | CCN1CC[C@@H](Nc2cccc3c(CC(F)(F)F)c(C#CCNC(=O)c4cnn(C(C)(C)C)c4N)nn23)[C@@H](F)C1 [Compound 353, 5-amino-1-tert-butyl-N-[3-(7-{[(3S,4R)-1-ethyl-3-fluoropiperidin-4-yl]amino}-3-(2,2,2-trifluoroethyl)pyrazolo[1,5-a]pyridin-2-yl)prop-2-yn-1-yl]-1H-pyrazole-4-carboxamide] | 4 |  | 22.3 | 26.5 | 0.152
